From PubChem BioAssay AID1919017 (Molecular Pharmacology Branch, DTP, NCI, 2023)

Test system: SW1271 complex spheroids with HUVEC/MSC, growth, % test/control
Test: Anticancer human tumor SW1271 cell line growth inhibition [AhR];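 also: spheroids exposed to agents for 7 days before readout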
Conditions: for IC50: curve of first compound; for viability, T/C: stronger effect = lower value
Text: Multicellular complex tumor spheroid response to aryl hydrocarbon receptor antagonists in combination with a variety of drugs and investigational agents in selected tumor cell lines
The current study was undertaken to assess response to aryl hydrocarbon receptor antagonists in combination with standard-of-care drugs and investigational agents in solid tumor complex spheroid models. Complex spheroids include a stromal component modeled by human endothelial cells (HUVEC) and fibroblasts modeled by human mesenchymal stem cells (MSCs). The concentration ranges selected for each drug and investigational agent were based upon clinically achievable concentrations if the clinical Cmax of the agent was known.
Compounds. The drugs and investigational agents: BAY 2416964 (NSC825713), GNF351 (NSC835774), CH-223191 (NSC835775), CPI-455 (NSC825282), aza-TdCyd (NSC777586), decitabine (NSC127716), belinostat (NSC758774), entinostat (NSC756642), pevonedistat (NSC761192), tazemetostat (NSC777109), talazoparib (NSC765396), olaparib (NSC753686), selinexor (NSC780203), nedisertib (M3814, NSC802822), bortezomib (NSC756655), venetoclax (NSC766270), doxorubicin (NSC123127), elimusertib (BAY189344, NSC800525), ceralasertib (AZD6738, NSC777638), TAK-243 (NSC785004), alisertib (NSC759677), etoposide (NSC141540), topotecan (NSC609699), eribulin (NSC707389), gemcitabine (NSC613327), carboplatin (NSC241240), cisplatin (NSC119875), and SN-38 (NSC673596) were obtained from the National Cancer Institute (NCI) Developmental Therapeutics Program Chemical Repository (32). The FDA-approved anticancer drug set is available from the Developmental Therapeutics Program at https://dtp.cancer.gov/organization/dscb/obtaining/available plates.htm. […] The stock solutions were prepared in dimethyl sulfoxide (DMSO, Sigma-Aldrich, St. Louis, MO, cat. D2650), except for the platinum compounds which were prepared in saline (Quality Biological, Gaithersburg, MD, cat. 114-055-101), at 800-fold the tested concentration and stored at -70 degrees C prior to their use. All drugs and investigational agents were tested over a range starting from a high concentration at or near the clinical Cmax and decreasing in half-log increments. If the clinical Cmax for an agent had not been determined, the highest concentration tested was 10 microM (Table 1).
Cell Culture. All cells were maintained in an incubator at 37 degrees C and 5% CO2 with 95% humidity. The PDC lines were cultured according to standard operating procedures established by the NCI PDMR (https://pdmr.cancer.gov). Briefly, all PDCs were thawed and cultured in Matrigel-coated flasks prepared with a working solution of 1X Ham's F-12 nutrient mix, without supplementation (Invitrogen, Waltham, MA, cat. 11765054), 100 U/mL penicillin-streptomycin (Invitrogen, cat. 15140122), and 2.5% Matrigel (Corning Inc., Corning, NY, cat. 354248) for the first three passages. All PDCs were cultured in complete DMEM/F-12 media containing advanced DMEM/F-12 (Invitrogen, cat. 12634028), 4.9% defined fetal bovine serum, heat inactivated (HyClone Laboratories Inc., Logan, UT, cat. SH30070.03HI), 389 ng/mL hydrocortisone (Sigma-Aldrich, cat. H4001), 9.7 ng/mL human EGF recombinant protein (Invitrogen, cat. PHG0313), 23.4 microg/mL adenine (Sigma-Aldrich, cat. A2786), 97.3 U/mL penicillin-streptomycin (Invitrogen, cat. 15140122), 1.9 mM L-glutamine (Invitrogen, cat. 25030081), and 9.7 microM Y-27632 dihydrochloride (Tocris Bioscience, Bristol, United Kingdom, cat. 1254). The PDCs were cultured in complete DMEM/F12 media without 10 microM Y-27632 dihydrochloride for at least two passages prior to the screen. The established cell lines NCI-H1341 and […] were cultured in DMEM/F-12, HEPES (Invitrogen, cat. 11330032), 5% defined fetal bovine serum (HyClone Laboratories Inc., cat. SH30070.03), ITS premix universal culture supplement [insulin (5 microg/mL), transferrin (5 microg/mL), and selenious acid (5 ng/mL)] […]

[1] = second compound 0.1 µM, first compound 0.0316 µM
[2] = second compound 0.1 µM, first compound 0.1 µM
[3] = second compound 0.1 µM, first compound 0.316 µM
[4] = second compound 0.1 µM, first compound 1 µM
[5] = second compound 0.316 µM, first compound 0.0316 µM
[6] = second compound 0.316 µM, first compound 0.1 µM
[7] = second compound 0.316 µM, first compound 0.316 µM
[8] = second compound 0.316 µM, first compound 1 µM
[9] = second compound 1 µM, first compound 0.0316 µM
[10] = second compound 1 µM, first compound 0.1 µM
[11] = second compound 1 µM, first compound 0.316 µM
[12] = second compound 1 µM, first compound 1 µM
[13] = second compound 3.16 µM, first compound 0.0316 µM
[14] = second compound 3.16 µM, first compound 0.1 µM
[15] = second compound 3.16 µM, first compound 0.316 µM
[16] = second compound 3.16 µM, first compound 1 µM
[17] = second compound 10 µM, first compound 0.0316 µM
[18] = second compound 10 µM, first compound 0.1 µM
[19] = second compound 10 µM, first compound 0.316 µM
[20] = second compound 10 µM, first compound 1 µM

Compound | IC50 (second compound 0.1 µM) | IC50 (second compound 0.316 µM) | IC50 (second compound 1 µM) | IC50 (second compound 3.16 µM) | IC50 (second compound 10 µM) | viability, T/C [1] | viability, T/C [2] | viability, T/C [3] | viability, T/C [4] | viability, T/C [5] | viability, T/C [6] | viability, T/C [7] | viability, T/C [8] | viability, T/C [9] | viability, T/C [10] | viability, T/C [11] | viability, T/C [12] | viability, T/C [13] | viability, T/C [14] | viability, T/C [15] | also measured
CC1COCCN1c1cc(-c2ccnn2C)c2ccnc(-c3ccn[nH]3)c2n1 (stereo not given) + Cc1ccccc1N=Nc1ccc(NC(=O)c2ccnn2C)c(C)c1 | 683 nM | > 1000 nM | > 1000 nM | > 1000 nM | > 1000 nM | 88.5% | 72.7% | 61.6% | 44.6% | 92.7% | 81.2% | 74.8% | 49.2% | 106% | 83.6% | 85.3% | 49.6% | 85.8% | 57% | 63.5% | viability, T/C (second compound 0.1 µM, first compound 0.00316 µM): 98.9%; viability, T/C (second compound 0.1 µM, first compound 0.01 µM): 97.4%; viability, T/C (second compound 0.316 µM, first compound 0.00316 µM): 102%; viability, T/C (second compound 0.316 µM, first compound 0.01 µM): 126%; viability, T/C (second compound 1 µM, first compound 0.00316 µM): 112%; viability, T/C (second compound 1 µM, first compound 0.01 µM): 96.9%; viability, T/C (second compound 3.16 µM, first compound 0.00316 µM): 100%; viability, T/C (second compound 3.16 µM, first compound 0.01 µM): 102%; viability, T/C [16]: 63%; viability, T/C (second compound 10 µM, first compound 0.00316 µM): 93.3%; viability, T/C (second compound 10 µM, first compound 0.01 µM): 95%; viability, T/C [17]: 99.9%; viability, T/C [18]: 72.3%; viability, T/C [19]: 55.1%; viability, T/C [20]: 58.2%
COc1cc(C2c3cc4c(cc3C(OC3OC5COC(C)OC5C(O)C3O)C3COC(=O)C23)OCO4)cc(OC)c1O (stereo not given) + CC(CO)NC(=O)c1cc(-c2ccc(Cl)cc2)nn(-c2cnn(C)c2)c1=O | 9250 nM | 5010 nM | 8480 nM | 3030 nM | 2910 nM | 78.3% | 74.3% | 66.5% | 72.7% | 93.5% | 77.6% | 60.4% | 57.9% | 64.7% | 78.5% | 59.4% | 60.1% | 70.9% | 68% | 59.6% | viability, T/C (second compound 0.1 µM, first compound 3.16 µM): 57.1%; viability, T/C (second compound 0.1 µM, first compound 10 µM): 49.5%; viability, T/C (second compound 0.316 µM, first compound 3.16 µM): 56%; viability, T/C (second compound 0.316 µM, first compound 10 µM): 44.5%; viability, T/C (second compound 1 µM, first compound 3.16 µM): 61.6%; viability, T/C (second compound 1 µM, first compound 10 µM): 47.7%; viability, T/C [16]: 45.2%; viability, T/C (second compound 3.16 µM, first compound 3.16 µM): 59.2%; viability, T/C (second compound 3.16 µM, first compound 10 µM): 43.6%; viability, T/C [17]: 71.1%; viability, T/C [18]: 65%; viability, T/C [19]: 50.7%; viability, T/C [20]: 63.7%; viability, T/C (second compound 10 µM, first compound 3.16 µM): 43.4%; viability, T/C (second compound 10 µM, first compound 10 µM): 48.3%
